From patent US20140357512A1, “HISTONE DEACETYLASE (HDAC) BIOMARKERS IN MULTIPLE MYELOMA” (priority 2013, published 2014)

Tested on: human myeloma cell line MM.1S
Assay: SILAC acetylated-lysine peptide profiling, HDAC inhibitor vs DMSO (light/heavy ratio)
Format: cell-based
Source text: An embodiment of the invention comprises utilizing the SILAC method in order to quantitate changes in protein expression between two or more populations of cells. The SILAC method is a technique based on mass spectrometry that detects differences in protein abundance among samples using non-radioactive isotopic labeling. The SILAC method is known in the art, and described in detail in Ong et al., “Stable Isotope Labeling by Amino Acids in Cell Culture, SILAC, as a Simple and Accurate Approach to Expression Proteomics”, Molecular & Cellular Proteomics, vol. 1, pp. 376-386 (2002), which is incorporated herein by reference in its entirety.
Briefly, the SILAC method involves growing two populations of cells in cell culture. The first population of cells is grown in growth media containing normal amino acids (“normal media”). The second population of cells is grown in media lacking a standard essential amino acid (such as lysine), but is then supplemented with a non-radioactive, isotopically labeled form of that essential amino acid (such as lysine labeled with ^13C atoms, rather than normal ^12C atoms), which is called “heavy media”. When the two populations of cells are each growing in the medium, they incorporate the amino acids into all of their proteins. The growth of cells maintained in the heavy media is no different from that in normal media. All peptides containing the heavy amino acids are heavier than their normal counterparts. The cells from each of the two populations of cells are lysed. The lysates from each of the two cell populations are then combined. The combined cell lysates are then analyzed by mass spectrometry. Pairs of chemically identical peptides of different stable isotope composition can be differentiated in a mass spectrometer due to their difference in mass. The ratio of peak intensities in the mass spectrum for such peptide pairs reflects the abundance ratio for the two proteins.
This example describes SILAC studies that were performed to compare the effects of three different HDAC inhibitors (Compound A, Compound B, and tubastatin A) to a control on a human multiple myeloma cell line. The HDAC inhibitors were also compared amongst themselves to determine differences in their effects.
A human myeloma cell line MM.1S was grown using either ^12C (light) or ^13C (heavy) lysine containing culture medium. The “heavy” cells were treated with DMSO as the control, and the “light” cells were treated with a single HDAC inhibitor at 37° C. for 6 hours. The heavy and light cells were lysed, and the lysates were mixed in 1:1 ratio and digested with the protease trypsin. The acetylated lysine containing peptides (due to the action of the HDAC inhibitor) in the digested peptide pool were captured by a non-specific anti-acetylated lysine antibody cocktail (the antibodies identify both light and heavy acetylated peptides), and subjected to mass spectrometry analysis in order to identify thousands of individual peptides.
Thousands of peptides were identified in pairs (^12C and ^13C) due to their known mass differences. The amino acid sequence and quantitative ratio (Light/Heavy) of a given peptide in two differentially treated cell lysates were then determined and annotated with their possible protein (gene) sources.
As stated above, three HDAC inhibitors (Compound A, Compound B, and Tubastatin A) were used. Thus, the SILAC method was performed three times, with a different HDAC inhibitor compared to a control each time. Accordingly, there are three pairs of quantitative data in the table below, i.e., Compound A:DMSO, Compound B:DMSO, and Tubastatin A:DMSO. A cut-off of 1.30 fold of change (increase or decrease) was then used to determine “changed” or “+” in the table, and any peptides with a fold of change less than 1.3 fold were determined to be “unchanged” or “0” in the table. Those peptides that were not identified were marked as “NA” in the table. […]

## CN1CCc2c(c3ccccc3n2Cc2ccc(C(=O)NO)cc2)C1 [Tub A]
Heterogeneous nuclear ribonucleoprotein U-like protein 2 [553], gene HNRNPUL2, inhibitor:DMSO
  light to heavy ratio (L/H ratio) of acetylated peptide LLLFK(ac)TFSR (SEQ ID NO: 514): 0.00 log 2
Histone H2B type 1-M [16:17], gene HIST1H2BM, drug:DMSO
  light to heavy ratio (L/H ratio), log 2 scale, acetylated peptide GSK(ac)K(ac)AINK (SEQ ID NO: 792): 0.00
Histone H2B type 1-M [17:21], gene HIST1H2BM, drug:DMSO
  light to heavy ratio (L/H ratio), log 2 scale, acetylated peptide K(ac)AINK(ac)AQK (SEQ ID NO: 793): 0.00
Histone H2B type 2-E [6:12], HIST2H2BE, drug:DMSO
  light to heavy ratio (L/H ratio) of acetylated peptide PEPAK(ac)SAPAPK(ac)K (SEQ ID NO: 309): 0.58 log 2
Histone H2B type 2-E [21:24], gene HIST2H2BE, inhibitor:DMSO
  light to heavy ratio (L/H ratio) of acetylated peptide AVTK(ac)AQK(ac)K (SEQ ID NO: 560): 0.00 log 2
Histone H3.2 [10:15], HIST2H3D, HIST2H3A, HIST2H3C, drug:DMSO
  light to heavy ratio (L/H ratio) of acetylated peptide K(ac)STGGK(ac)APR (SEQ ID NO: 310): 0.46 log 2
Histone H3.2 [19:24], gene HIST2H3D, HIST2H3A, HIST2H3C, drug:DMSO
  light to heavy ratio (L/H ratio), log 2 scale, acetylated peptide K(ac)QLATK(ac)AAR (SEQ ID NO: 796): 0.00
Histone H4 [6:9], HIST2H4B, HIST1H4C and other H4 genes, drug:DMSO
  light to heavy ratio (L/H ratio) of acetylated peptide GK(ac)GGK(ac)GLGK (SEQ ID NO: 311): 0.49 log 2
Histone H4 [13:17], HIST2H4B, HIST1H4C and other H4 genes, drug:DMSO
  light to heavy ratio (L/H ratio) of acetylated peptide GLGK(ac)GGAK(ac)R (SEQ ID NO: 312): 0.49 log 2
Histone H4 [13], HIST2H4B, HIST1H4C and other H4 genes, drug:DMSO
  light to heavy ratio (L/H ratio) of acetylated peptide GLGK(ac)GGAKR (SEQ ID NO: 313): −0.62 log 2
Hydroxymethylglutaryl-CoA lyase mitochondrial [48], HMGCL, drug:DMSO
  light to heavy ratio (L/H ratio) of acetylated peptide DGLQNEK(ac)NIVSTPVK (SEQ ID NO: 268): 0.40 log 2
Hydroxymethylglutaryl-CoA lyase mitochondrial [137], gene HMGCL, inhibitor:DMSO
  light to heavy ratio (L/H ratio) of acetylated peptide K(ac)NINCSIEESFQR (SEQ ID NO: 594): 0.00 log 2
IFVGGLSPDTPEEK(ac)IR (SEQ ID NO: 166), Isoform 1 of Heterogeneous nuclear ribonucleoprotein D0 [197], HNRNPD
  light to heavy ratio (L/H ratio) of acetylated peptide, log 2 scale: −0.78
IGFGSFVDK(ac)TVLPFVSTVPSK (SEQ ID NO: 180), Isoform Long of Integrin beta-7 [199], ITGB7
  light to heavy ratio (L/H ratio) of acetylated peptide, log 2 scale: −0.40
IGIEIIK(ac)R (SEQ ID NO: 174), 60 kDa heat shock protein mitochondrial [469], HSPD1
  light to heavy ratio (L/H ratio) of acetylated peptide, log 2 scale: −0.42
IGLV2-14, IGLC2 [208], log 2 scale, drug vs DMSO
  L/H ratio of acetylated peptide YAASSYLSLTPEQWK(ac)SHR (SEQ ID NO: 56): −0.63
IMK(ac)DLDQCR (SEQ ID NO: 217), Protein S100-A10 [57], S100A10
  light to heavy ratio (L/H ratio) of acetylated peptide, log 2 scale: 0.72
IQDK(ac)EGIPPDQQR (SEQ ID NO: 212), Ubiquitin-40S ribosomal protein S27a [33], RPS27A
  light to heavy ratio (L/H ratio) of acetylated peptide, log 2 scale: −0.50
ISK(ac)EVLAGR (SEQ ID NO: 167), Isoform Short of Heterogeneous nuclear ribonucleoprotein U [417], HNRNPU
  light to heavy ratio (L/H ratio) of acetylated peptide, log 2 scale: −0.75
IVQK(ac)HPHTGDTKEEK (SEQ ID NO: 489), Death-associated protein 1 [29], DAP
  L/H ratio of acetylated peptide: 0.00 log 2
IYFTDSSSK(ac)WQR (SEQ ID NO: 138), Isoform 1 of Adipocyte plasma membrane-associated protein [220], C20orf3
  light to heavy ratio (L/H ratio) of acetylated peptide, log 2 scale: −0.59
Inactive hydroxysteroid dehydrogenase-like protein 1 [64], gene HSDL1, drug:DMSO
  light to heavy ratio (L/H ratio), log 2 scale, acetylated peptide ADLIK(ac)QYGR (SEQ ID NO: 798): 0.00
Isocitrate dehydrogenase [NADP] mitochondrial [180], gene IDH2, inhibitor:DMSO
  light to heavy ratio (L/H ratio) of acetylated peptide HAHGDQYK(ac)ATDFVADR (SEQ ID NO: 574): 0.00 log 2
Isocitrate dehydrogenase [NADP] mitochondrial [193], gene IDH2, inhibitor:DMSO
  light to heavy ratio (L/H ratio) of acetylated peptide AGTFK(ac)MVFTPK (SEQ ID NO: 606): 0.00 log 2
Isoform 1 of 39S ribosomal protein L47 mitochondrial [144], MRPL47, drug:DMSO
  light to heavy ratio (L/H ratio) of acetylated peptide VVDSMDALDK(ac)VVQER (SEQ ID NO: 318): 0.45 log 2
Isoform 1 of 40S ribosomal protein S24 [37], RPS24, drug:DMSO
  light to heavy ratio (L/H ratio) of acetylated peptide ATVPK(ac)TEIR (SEQ ID NO: 272): −0.44 log 2
Isoform 1 of 60S ribosomal protein L11 [85], gene RPL11, inhibitor:DMSO
  light to heavy ratio (L/H ratio) of acetylated peptide AEEILEK(ac)GLK (SEQ ID NO: 547): 0.00 log 2
Isoform 1 of 60S ribosomal protein L11 [159], RPL11, drug:DMSO
  light to heavy ratio (L/H ratio) of acetylated peptide ISK(ac)EEAMR (SEQ ID NO: 299): −0.48 log 2
Isoform 1 of ATP synthase subunit d mitochondrial [72], ATP5H, drug:DMSO
  light to heavy ratio (L/H ratio) of acetylated peptide AGLVDDFEK(ac)K (SEQ ID NO: 301): 0.66 log 2
Isoform 1 of ATP synthase subunit d mitochondrial [85], ATP5H, drug:DMSO
  light to heavy ratio (L/H ratio) of acetylated peptide VPVPEDK(ac)YTAQVDAEEKEDVK (SEQ ID NO: 290): 0.50 log 2
Isoform 1 of Dedicator of cytokinesis protein 2 [738], gene DOCK2, inhibitor:DMSO
  light to heavy ratio (L/H ratio) of acetylated peptide TLK(ac)ALEYVFK (SEQ ID NO: 516): 0.00 log 2
Isoform 1 of E3 UFM1-protein ligase 1 [614], gene UFL1, drug:DMSO
  light to heavy ratio (L/H ratio), log 2 scale, acetylated peptide ILSK(ac)LSEETK (SEQ ID NO: 759): 0.00
Isoform 1 of Heat shock cognate 71 kDa protein [601], gene HSPA8, inhibitor:DMSO
  light to heavy ratio (L/H ratio) of acetylated peptide ELEK(ac)VCNPIITK (SEQ ID NO: 612): 0.00 log 2
Isoform 1 of Histone-lysine N-methyltransferase MLL3 [2809], gene MLL3, inhibitor:DMSO
  light to heavy ratio (L/H ratio) of acetylated peptide TLVLSDK(ac)HSPQK (SEQ ID NO: 523): 0.00 log 2
Isoform 1 of Hydroxyacyl-coenzyme A dehydrogenase mitochondrial [127], gene HADH, inhibitor:DMSO
  light to heavy ratio (L/H ratio) of acetylated peptide VK(ac)NELFK (SEQ ID NO: 565): 0.00 log 2
Isoform 1 of Hydroxyacyl-coenzyme A dehydrogenase mitochondrial [301], HADH, drug:DMSO
  light to heavy ratio (L/H ratio) of acetylated peptide LVAENK(ac)FGK (SEQ ID NO: 296): −0.43 log 2
Isoform 1 of L-lactate dehydrogenase A chain [318], LDHA, drug:DMSO
  light to heavy ratio (L/H ratio) of acetylated peptide K(ac)SADTLWGIQK (SEQ ID NO: 316): 1.00 log 2
Isoform 1 of N-alpha-acetyltransferase 50 NatE catalytic subunit [37], gene NAA50, inhibitor:DMSO
  light to heavy ratio (L/H ratio) of acetylated peptide FYK(ac)DVLEVGELAK (SEQ ID NO: 596): 0.00 log 2
Isoform 1 of Peripherin [288], gene PRPH, drug:DMSO
  light to heavy ratio (L/H ratio), log 2 scale, acetylated peptide NLQEAEEWYK(ac)SK (SEQ ID NO: 767): 0.00
Isoform 1 of Protein MB21D1 [414], gene MB21D1, inhibitor:DMSO
  light to heavy ratio (L/H ratio) of acetylated peptide LMK(ac)YLLEQLK (SEQ ID NO: 585): 0.00 log 2
Isoform 1 of Protein SET [154], SET, drug:DMSO
  light to heavy ratio (L/H ratio) of acetylated peptide VLSK(ac)EFHLNESGDPSSK (SEQ ID NO: 294): −1.00 log 2
Isoform 1 of RNA-binding protein with serine-rich domain 1 [218], RNPS1, drug:DMSO
  light to heavy ratio (L/H ratio) of acetylated peptide GYAYVEFENPDEAEK(ac)ALK (SEQ ID NO: 349): 0.00 log 2
Isoform 1 of Signal recognition particle 9 kDa protein [52], gene SRP9, drug:DMSO
  light to heavy ratio (L/H ratio), log 2 scale, acetylated peptide […](ac)TDQAQDVK (SEQ ID NO: 765): 0.00
Isoform 1 of UDP-N-acetylglucosamine--dolichyl-phosphate N-acetylglucosaminephosphotransferase [320], DPAGT1, drug:DMSO
  light to heavy ratio (L/H ratio) of acetylated peptide LEMSYSK(ac)FK (SEQ ID NO: 304): 0.48 log 2
